Data: patent US4198504A, “[3-(Pyridinium)-7-(naphthyiridinyl carbonylamino)acetamido]cephalosporanic acid derivatives” (Bristol-Myers Company, priority 1978, dated 1980)

How the values were obtained:
S. aureus = experiment: In vitro MIC, serial two-fold agar dilution, primary evaluation Gp (S. aureus, 6 strains); assay type: cell-based; conditions: CBPC = 100%; geometric mean of MICs; Mueller-Hinton agar
Protocol: (§1) Minimun inhibitory concentrations (MIC) were determined by the serial two-fold agar dilution method using Steers' apparatus on Mueller-Hinton agar plate against 31 test organisms for the primary screening and also against 64 strains of Pseudomonas aeruginosa for the secondary evaluation. The results are shown in Table 1 in terms of relative activity with respect to the standard compound CBPC (carbenicillin) which was set at 100%. In each group the calculation was based on the geometric mean of the observed MICs.
*GP = S. aureus (6 strains);

[1] = system: E. coli (9), Klebsiella sp. (2), Pr. mirabilis (1), Sal. enteritidis (1); experiment: In vitro MIC, serial two-fold agar dilution, primary evaluation Gn-I (E. coli, Klebsiella sp., Pr. mirabilis, Sal. enteritidis); assay type: cell-based; conditions: CBPC = 100%; geometric mean of MICs; Mueller-Hinton agar
Protocol: as §1
GnI = E. coli (9), Klebsiella sp. (2), Pr. mirabilis (1), Sal.

[2] = system: Ent. cloacae (3), Pr. vulgaris (1), Pr. morganii (1), S. marcescen (1); experiment: In vitro MIC, serial two-fold agar dilution, primary evaluation Gn-II (Ent. cloacae, Pr. vulgaris, Pr. morganii, S. marcescens); assay type: cell-based; conditions: CBPC = 100%; geometric mean of MICs; Mueller-Hinton agar
Protocol: as §1
GnII = Ent. cloacae (3), Pr. vulgaris (1), Pr. morganii (1), S. marcescen

Ps. aeruginosa = experiment: In vitro MIC, serial two-fold agar dilution, primary evaluation Ps (6 strains); assay type: cell-based; conditions: CBPC = 100%; geometric mean of MICs; Mueller-Hinton agar
Protocol: as §1
Ps. = Ps. aeruginosa (6).

Pseudomonas aeruginosa = experiment: In vitro MIC, serial two-fold agar dilution, secondary evaluation against Pseudomonas aeruginosa strains; assay type: cell-based; conditions: CBPC = 100%; geometric mean of MICs; 61-64 strains
Protocol: as §1

[3] = system: Pseudomonas aeruginosa A9843; experiment: In vivo efficacy, experimental infection in mice, intramuscular treatment, Pseudomonas aeruginosa A9843; set-up: species or system Pseudomonas aeruginosa (infected mice); conditions: A9843, im, 120 h, I.M., 100×LD50 challenge i.p., 5 days, read-out: PD50 Pseudomonas aeruginosa A9843
Protocol: (§2) The in vivo efficacy was evaluated by intramuscular treatment against three kinds of experimental infection in mice.
(§3) The in vivo tests were carried out using the following three pathogenic organisms:
Pseudomonas aeruginosa A9843
(§4) Mice were challenged intraperitoneally with approximately a 100×LD50 dose of the pathogens in a 5% mucin suspension. The mice were treated with test compound by I.M. route immediately after the bacterial challenge.

[4] = Antibiotic blood levels in mice following intramuscular administration (paper disc-agar diffusion, Escherichia coli NIHJ as assay organism); assay type: in vivo; conditions: mouse, im, I.M., 20 mg./kg.; for half-life: read-out: Blood level, Half-life; for Cmax: read-out: Blood level, Peak Concentration
Protocol: Antibiotic blood levels were determined in mice following intramuscular administration of the test compounds at 20 mg./kg. The blood samples were collected from the orbital sinuses into heparinized capillary tubes at 15, 30, 60 and 120 minutes after administration. The antibiotic concentration was determined by the paper disc-agar diffusion method using Escherichia coli NIHJ as the assay organism.

Escherichia coli Juhl = experiment: In vivo efficacy, experimental infection in mice, intramuscular treatment, Escherichia coli Juhl; set-up: species or system Escherichia coli (infected mice); conditions: im, 120 h, I.M., 100×LD50 challenge i.p., 5 days, read-out: PD50 Escherichia coli Juhl
Protocol: as §2, §3, §4

Row | Compound | In vitro relative activity, primary evaluation Gp (6) (S. aureus) | In vitro relative activity, primary evaluation Gn-I (13) [1] | In vitro relative activity, primary evaluation Gn-II (6) [2] | In vitro relative activity, primary evaluation Ps (6) (Ps. aeruginosa) | In vitro relative activity, secondary, Pseudomonas aeruginosa (61-64) (Pseudomonas aeruginosa) | ED50 [3] | half-life [4] | Cmax [4] | ED50 (Escherichia coli Juhl)
1 | O=C([O-])C1=C(C[n+]2ccc(C(=O)O)c(C(=O)O)c2)CSC2C(NC(=O)[C@H](NC(=O)c3cnc4cccnc4c3O)c3ccc(O)cc3)C(=O)N12 (stereo partly drawn) [BB-S586, 7-[D-α-(4-Hydroxy-1,5-naphthyridine-3-carboxamido)-α-(4-hydroxyphenyl)acetamido]-3-(3,4-dicarboxypyridinium)methyl-3-cephem-4-carboxylate] | 6% | 88% | 11% | 362% | 351% |  |  |  | 
2 | O=C([O-])C1=C(C[n+]2cccc(S(=O)(=O)O)c2)CSC2C(NC(=O)[C@H](NC(=O)c3cnc4cccnc4c3O)c3ccc(O)c(Cl)c3)C(=O)N12 (stereo partly drawn) [BB-S601, 7-[D-α-(4-Hydroxy-1,5-naphthyridine-3-carboxamido)-α-(3-chloro-4-hydroxyphenyl)acetamido]-3-(3-sulfopyridinium)methyl-3-cephem-4-carboxylate] | 79% | 107% | 25% | 3200% | 2490% | 4.4 mg/kg | 70 min | 10000 ng/mL | 
3 | O=C(O)CCc1ccc[n+](CC2=C(C(=O)[O-])N3C(=O)C(NC(=O)[C@H](NC(=O)c4cnc5cccnc5c4O)c4ccc(O)cc4)C3SC2)c1 (some centres unmarked) [BB-S619] | 31% | 88% | 18% | 725% | 1600% | 4.6 mg/kg | 55 min | 10000 ng/mL | 3.2 mg/kg
4 | O=C([O-])C1=C(C[n+]2cccc(CCS(=O)(=O)O)c2)CSC2C(NC(=O)[C@H](NC(=O)c3cnc4cccnc4c3O)c3ccc(O)cc3)C(=O)N12 (stereo partly drawn) [BB-S620, 7-[D-α-(4-Hydroxy-1,5-naphthyridine-3-carboxamido)-α-(4-hydroxyphenyl)acetamido]-3-[3-(2-sulfoethyl)pyridinium]methyl 3-cephem-4-carboxylate] | 28% | 60% | 14% | 800% | 1800% | 6.25 mg/kg | 40 min | 12500 ng/mL | 3.2 mg/kg
5 | O=C([O-])C1=C(C[n+]2cccc(C(=O)O)c2)CSC2C(NC(=O)[C@H](NC(=O)c3cnc4cccnc4c3O)c3ccsc3)C(=O)N12 (stereo partly drawn) [BB-S624, 7-[D-α-(4-Hydroxy-1,5-naphthyridine-3-carboxamido)-α-(3-thienyl)acetamido]-3-(3-carboxypyridinium)methyl-3-cephem-4-carboxylate] | 79% | 47% | 10% | 328% | 413% | 20 mg/kg | 50 min | 9500 ng/mL | 
6 | O=C([O-])C1=C(C[n+]2cccc(S(=O)(=O)O)c2)CSC2C(NC(=O)[C@H](NC(=O)c3cnc4cccnc4c3O)c3ccsc3)C(=O)N12 (stereo partly drawn) [BB-S625, 7-[D-α-(4-Hydroxy-1.5-naphthyridine-3-carboxamido)-α-(3-thienyl)acetamido]-3-(3-sulfopyridinium)methyl-3-cephem-4-carboxylate] | 50% | 32% | 7% | 200% | 400% | 36 mg/kg | 54 min | 10000 ng/mL | 
7 | O=C(O)C=Cc1ccc[n+](CC2=C(C(=O)[O-])N3C(=O)C(NC(=O)[C@H](NC(=O)c4cnc5cccnc5c4O)c4ccsc4)C3SC2)c1 (stereo partly drawn) [BB-S626, 7-[D-α-(4-Hydroxy-1,5-naphthyridine-3-carboxamido)-α-(3-thienyl)acetamido]-3-[3-(2-carboxyvinyl)pyridinium]methyl-3-cephem-4-carboxylate] | 45% | 41% | 11% | 231% | 460% | 30 mg/kg | 42 min | 8800 ng/mL | 
8 | O=C(O)CSc1ccc[n+](CC2=C(C(=O)[O-])N3C(=O)C(NC(=O)[C@H](NC(=O)c4cnc5cccnc5c4O)c4ccc(O)cc4)C3SC2)c1 (stereo partly drawn) [BB-S636, 7-[D-α-(4-Hydroxy-1,5-naphthyridine-3-carboxamido)-α-(4-hydroxyphenyl)acetamido]-3-(3-carboxymethylthiopyridinium)-methyl-3-cephem-4-carboxylate] | 71% | 242% | 50% | 7070% |  |  |  |  | 
9 | O=C(O)CSc1ccc[n+](CC2=C(C(=O)[O-])N3C(=O)C(NC(=O)[C@H](NC(=O)c4cnc5cccnc5c4O)c4ccc(O)c(Cl)c4)C3SC2)c1 (stereo partly drawn) [BB-S637, 7-[D-α-(4-Hydroxy-1,5-naphthyridine-3-carboxamido)-α-(3-chloro-4-hydroxyphenyl)acetamido]-3-(3-carboxymethylthiopyridinium)methyl-3-cephem-4-carboxylate] | 71% | 113% | 25% | 3530% |  |  |  |  | 
10 | O=C(O)CSc1ccc[n+](CC2=C(C(=O)[O-])N3C(=O)C(NC(=O)[C@H](NC(=O)c4cnc5cccnc5c4O)c4ccc(O)c(O)c4)C3SC2)c1 (stereo partly drawn) [BB-S638, 7-[D-α-(4-Hydroxy-1,5-naphthyridine-3-carboxamido)-α-(3,4-dihydroxyphenyl)acetamido]-3-(3-carboxymethylthiopyridinium)-methyl-3-cephem-4-carboxylate] | 8% | 69% | 8% | 2380% |  |  |  |  | 
11 | O=C(O)CSc1cc[n+](CC2=C(C(=O)[O-])N3C(=O)C(NC(=O)[C@H](NC(=O)c4cnc5cccnc5c4O)c4ccc(O)c(O)c4)C3SC2)cc1 (stereo partly drawn) [BB-S639, 7-[D-α-(4-Hydroxy-1,5-naphthyridine-3-carboxamido)-α-(3,4-dihydroxyphenyl)acetamido]-3-(4-carboxymethylthiopyridinium)-methyl-3-cephem-4-carboxylate] | 20% | 242% | 35% | 4310% |  |  |  |  | 
